# Reference: patent publication US4032654A, “Water-soluble, liquid concentrates of S-methyl-[(methyl-carbamoyl)oxy]-thioacetimidate and methyl N', N'-dimethyl-N-[(methyl-carbamoyl)oxy]-1-thiooxamimidate” (priority 1975, dated 1977)
# Test: physchem
# Conditions: -6° C.
# Procedure: Solubility of Methomyl and Oxamyl (2:1 wt. ratio) in CH3 OH/H2 O at -6° C.
# Methomyl and oxamyl were added to various methanol:water solvent systems ranging from 100 wt. % CH3 OH to 30 wt. % CH3 OH:70 wt. % H2 O. The methomyl and oxamyl were dissolved in a 2:1 weight ratio of 50 wt. % methomyl to 25 wt. % oxamyl in the solvent systems. The samples were equilibrated at -6° C. in a constant temperature freezer after which they were seeded with methomyl and oxamyl crystals to ensure crystallization of both materials. After crystal-liquid equilibrium was assured, liquid was removed at -6° C. and assayed for methomyl and oxamyl. Solids were also removed at -6° C., washed with hexane and dried. The solids were then dissolved in methanol to yield a 10 wt. % solution. This solution was evaluated by thin layer chromatography (TLC) to ensure the solids consisted of both methomyl and oxamyl.
structure (smiles),measurement,setting,value
CNC(=O)ON=C(C)SC [Methomyl],solubility,"30/70 ch3oh/h2o, both actives in solvent: Methomyl, with oxamyl, 2:1 wt., 30/70 CH3OH/H2O",241 mg/mL
same,solubility,"40/60 ch3oh/h2o, Methomyl alone in solvent, alone",62 mg/mL
same,solubility,"40/60 ch3oh/h2o, both actives in solvent: Methomyl, with oxamyl, 2:1 wt., 40/60 CH3OH/H2O",422 mg/mL
same,solubility,"50/50 ch3oh/h2o, Methomyl alone in solvent, alone",105 mg/mL
same,solubility,"50/50 ch3oh/h2o, both actives in solvent: Methomyl, with oxamyl, 2:1 wt., 50/50 CH3OH/H2O",461 mg/mL
same,solubility,"60/40 ch3oh/h2o, Methomyl alone in solvent, alone",155 mg/mL
same,solubility,"60/40 ch3oh/h2o, both actives in solvent: Methomyl, with oxamyl, 2:1 wt., 60/40 CH3OH/H2O",552 mg/mL
same,solubility,"70/30 ch3oh/h2o, Methomyl alone in solvent, alone",208 mg/mL
same,solubility,"70/30 ch3oh/h2o, both actives in solvent: Methomyl, with oxamyl, 2:1 wt., 70/30 CH3OH/H2O",342 mg/mL
same,solubility,"80/20 ch3oh/h2o, Methomyl alone in solvent, alone",263 mg/mL
same,solubility,"80/20 ch3oh/h2o, both actives in solvent: Methomyl, with oxamyl, 2:1 wt., 80/20 CH3OH/H2O",598 mg/mL
same,solubility,"90/10 ch3oh/h2o, Methomyl alone in solvent, alone",299 mg/mL
same,solubility,"90/10 ch3oh/h2o, both actives in solvent: Methomyl, with oxamyl, 2:1 wt., 90/10 CH3OH/H2O",737 mg/mL
same,"Solubility, Methomyl alone in solvent","alone, 100/0 CH3OH/H2O",30.7 gms/100 gms
same,Solubility change when dissolved in combination,"methanol:water solvent systems, 2:1 wt. ratio dissolved initially",increased
same,"Solubility, both actives in solvent: Methomyl","with oxamyl, 2:1 wt., 100/0 CH3OH/H2O",82.5 gms/100 gms
